In US20240315990A1, “Adelmidrol For Use In Diseases Characterized By Insufficient Agonism Of PPAR-GAMMA Receptor” (Epitech Group S.P.A., priority 2016, published 2024):
Entries after “also recorded” stand apart in the source; their conditions may differ.

Experiments:
Assay type in all cases: in vivo
[1] = system: carrageenan-induced rat paw edema; assay: carrageenan-induced rat paw edema, foot volume by plethysmometer
Experimental: The experimental model of carrageenan-induced rat paw edema was used.
The experimental model of carrageenan-induced paw edema was induced by sub-plantarily injecting a solution of carrageenan (containing 50 μl of sterile saline containing 1% carrageenan) in the animal's right paw (rat).
The foot volume was measured at specific time intervals by means of a plethysmometer (Ugo Basile, Milan, Italy). The increase in plantar volume was assessed as the difference between the value obtained at the specific time intervals and the volume at baseline (time 0) measured immediately before the administration of carrageenan.
The rats (10 animals per group) were divided into the following experimental groups: • CAR+physiological solution; • CAR+Adelmidrol (3 mg/kg); Adelmidrol was administered i.p. when injecting CAR; • CAR+Adelmidrol (10 mg/kg); Adelmidrol was administered i.p. when injecting CAR.

[2] = system: MIA-induced articular cartilage erosion; assay: monosodium iodoacetate (MIA)-induced articular lesion, cartilage erosion by stereomicroscope; conditions: Adelmidrol 150 μg/25 μL i.a.
Experimental: FIG. 1A. Images obtained by a stereomicroscope on the state of erosion of the interposed cartilage in the right knee of each experimental group: control, MIA, Adelmidrol 150 μg/25 μL i.a. The analysis was performed 21 days after the induction of the disease.
FIG. 1B. Effect of the treatment with Adelmidrol 150 μg/25 μL i.a. on the erosive lesion of the interposed cartilage upon injection of MIA, compared to MIA and control groups treated with the solvent;
A microscopic analysis of the lesion related to the articular cartilage was performed by comparing the erosive lesion of the articular cartilage between the following groups: animals not treated with MIA, animals treated with MIA+solvent, and animals treated with MIA+solvent added with Adelmidrol. […] In the image corresponding to the animal damaged through MIA, an extensive cartilage erosion is apparent, which also allows to distinguish the subchondral bone, unlike the animal control whose joint is in excellent condition. […] Each image was given a score from 0 to 4 (0=normal; 4=maximum degree of injury severity) expressing the articular cartilage lesion in terms of increasing severity (Janusz M J et al. Ostearthritis and Cartilage 2001; 9:751-760), as described by Guingamp et al. (Guingamp C. et al. Arthritis & Rheumatism 1997; Vol 40 No 9:1670-1679).

PPAR-gamma receptor = molecular target: T1, PPAR-gamma receptor (Rattus norvegicus, UniProt O88275); assay: carrageenan-induced rat paw edema with PPAR-gamma antagonist GW9662, residence time of the paw on the hot plate
T1 construct: from tissue; host or cells: live rat (in vivo, paw edema model)
T1 sequence (O88275 1-505): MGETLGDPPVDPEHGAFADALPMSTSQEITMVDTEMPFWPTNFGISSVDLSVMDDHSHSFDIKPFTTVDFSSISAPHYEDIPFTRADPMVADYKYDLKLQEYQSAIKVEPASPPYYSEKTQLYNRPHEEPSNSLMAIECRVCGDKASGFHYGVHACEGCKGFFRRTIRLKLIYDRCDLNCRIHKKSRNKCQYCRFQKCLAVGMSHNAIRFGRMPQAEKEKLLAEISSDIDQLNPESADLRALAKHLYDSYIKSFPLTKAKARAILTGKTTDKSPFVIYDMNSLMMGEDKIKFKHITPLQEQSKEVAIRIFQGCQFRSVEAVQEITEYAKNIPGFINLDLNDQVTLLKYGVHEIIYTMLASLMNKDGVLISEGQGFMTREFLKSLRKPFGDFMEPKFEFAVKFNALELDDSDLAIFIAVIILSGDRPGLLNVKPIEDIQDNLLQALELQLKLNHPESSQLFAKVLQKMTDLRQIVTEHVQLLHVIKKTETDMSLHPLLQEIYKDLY
Experimental: The experimental model of carrageenan-induced rat paw edema is as shown above. In this experiment, the effect was assessed by measuring the residence time of the animal's paw on the hot plate, thus obtaining percentage data with respect to the control treated with carrageenan alone.
The rats (10 animals per group) were divided into the following experimental groups: • CAR+physiological solution; • CAR+GW9662 (1 mg/kg)+Adelmidrol (10 mg/kg); GW9662 was administered i.p. 30 min before injecting CAR and Adelmidrol (i.p.) when injecting CAR; • CAR+Adelmidrol (10 mg/kg); Adelmidrol was administered i.p. when injecting CAR.

[3] = system: carrageenan-induced edema in PPAR-α-WT and KO mice; assay: carrageenan-induced edema in PPAR-alpha knock-out mice; conditions: Adelmidrol 10 mg/kg i.p.; for edema as a percentage with respect to the edema produced by carrageenan alone: PPAR-α-WT and KO mice
Experimental: In order to verify a possible involvement of PPAR-alpha receptor, the edema induced by carrageenan in the manners described above was carried out on PPAR-alpha knock-out mice (PPAR-α-WT and KO).
PPAR-α-WT and KO mice (10 animals per group) were divided into the following experimental groups: • CAR+physiological solution; • CAR+Adelmidrol (10 mg/kg); Adelmidrol was administered i.p. when injecting CAR.

SMILES: O=C(CCCCCCCC(=O)NCCO)NCCO [Adelmidrol, azelaic acid diethanolamide]
- effect on carrageenan-induced edema (in words) ([1]; 3 and 10 mg/kg i.p.): reduction of the carrageenan-induced edema with a dose-dependent action
- paw edema as a percentage with respect to the edema produced by carrageenan alone ([1]; Adelmidrol 3 mg/kg i.p. when injecting CAR, 0 min.): 101.2 percentage
- paw edema as a percentage with respect to the edema produced by carrageenan alone ([1]; Adelmidrol 3 mg/kg i.p. when injecting CAR, 30 min): 86.7 percentage
- paw edema as a percentage with respect to the edema produced by carrageenan alone ([1]; Adelmidrol 3 mg/kg i.p. when injecting CAR, 1 hr): 71.9 percentage
- paw edema as a percentage with respect to the edema produced by carrageenan alone ([1]; Adelmidrol 3 mg/kg i.p. when injecting CAR, 2 hr): 72.3 percentage
- paw edema as a percentage with respect to the edema produced by carrageenan alone ([1]; Adelmidrol 3 mg/kg i.p. when injecting CAR, 3 hr): 69.8 percentage
- paw edema as a percentage with respect to the edema produced by carrageenan alone ([1]; Adelmidrol 3 mg/kg i.p. when injecting CAR, 4 hr): 67.2 percentage
- paw edema as a percentage with respect to the edema produced by carrageenan alone ([1]; Adelmidrol 3 mg/kg i.p. when injecting CAR, 5 hr): 67.4 percentage
- paw edema as a percentage with respect to the edema produced by carrageenan alone ([1]; Adelmidrol 10 mg/kg i.p. when injecting CAR, 0 min.): 102.6 percentage
- paw edema as a percentage with respect to the edema produced by carrageenan alone ([1]; Adelmidrol 10 mg/kg i.p. when injecting CAR, 30 min): 81.6 percentage
- paw edema as a percentage with respect to the edema produced by carrageenan alone ([1]; Adelmidrol 10 mg/kg i.p. when injecting CAR, 1 hr): 68.7 percentage
- paw edema as a percentage with respect to the edema produced by carrageenan alone ([1]; Adelmidrol 10 mg/kg i.p. when injecting CAR, 2 hr): 63.8 percentage
- paw edema as a percentage with respect to the edema produced by carrageenan alone ([1]; Adelmidrol 10 mg/kg i.p. when injecting CAR, 3 hr): 53.6 percentage
- paw edema as a percentage with respect to the edema produced by carrageenan alone ([1]; Adelmidrol 10 mg/kg i.p. when injecting CAR, 4 hr): 49.5 percentage
- paw edema as a percentage with respect to the edema produced by carrageenan alone ([1]; Adelmidrol 10 mg/kg i.p. when injecting CAR, 5 hr): 49.5 percentage
- cartilage erosion of the tibial plateau, stereomicroscope image (FIG. 1A) ([2]; 21 days after induction with MIA): clear protection against cartilage erosion
- cartilage erosion, quantitative analysis of score 0 to 4 (FIG. 1B) ([2]; compared to MIA + solvent): noticeably slow down the cartilage erosion in a statistically significant manner
- residence time of the paw on the hot plate, percentage with respect to the control treated with carrageenan alone (PPAR-gamma receptor; Adelmidrol 10 mg/kg ip alone, 0 min.): 107.4 percentage
- residence time of the paw on the hot plate, percentage with respect to the control treated with carrageenan alone (PPAR-gamma receptor; Adelmidrol 10 mg/kg ip alone, 30 min): 98.5 percentage
- residence time of the paw on the hot plate, percentage with respect to the control treated with carrageenan alone (PPAR-gamma receptor; Adelmidrol 10 mg/kg ip alone, 1 hr): 123.2 percentage
- residence time of the paw on the hot plate, percentage with respect to the control treated with carrageenan alone (PPAR-gamma receptor; Adelmidrol 10 mg/kg ip alone, 2 hr): 134.2 percentage
- residence time of the paw on the hot plate, percentage with respect to the control treated with carrageenan alone (PPAR-gamma receptor; Adelmidrol 10 mg/kg ip alone, 3 hr): 146.8 percentage
- residence time of the paw on the hot plate, percentage with respect to the control treated with carrageenan alone (PPAR-gamma receptor; Adelmidrol 10 mg/kg ip alone, 4 hr): 197.7 percentage
- residence time of the paw on the hot plate, percentage with respect to the control treated with carrageenan alone (PPAR-gamma receptor; Adelmidrol 10 mg/kg ip alone, 5 hr): 175.0 percentage
- residence time of the paw on the hot plate, percentage with respect to the control treated with carrageenan alone (PPAR-gamma receptor; GW9662 1 mg/kg i.p. 30 min before CAR + Adelmidrol 10 mg/kg i.p., 0 min.): 105.2 percentage
- residence time of the paw on the hot plate, percentage with respect to the control treated with carrageenan alone (PPAR-gamma receptor; GW9662 1 mg/kg i.p. 30 min before CAR + Adelmidrol 10 mg/kg i.p., 30 min): 96.2 percentage
- residence time of the paw on the hot plate, percentage with respect to the control treated with carrageenan alone (PPAR-gamma receptor; GW9662 1 mg/kg i.p. 30 min before CAR + Adelmidrol 10 mg/kg i.p., 1 hr): 102.4 percentage
- residence time of the paw on the hot plate, percentage with respect to the control treated with carrageenan alone (PPAR-gamma receptor; GW9662 1 mg/kg i.p. 30 min before CAR + Adelmidrol 10 mg/kg i.p., 2 hr): 104.1 percentage
- residence time of the paw on the hot plate, percentage with respect to the control treated with carrageenan alone (PPAR-gamma receptor; GW9662 1 mg/kg i.p. 30 min before CAR + Adelmidrol 10 mg/kg i.p., 3 hr): 111.3 percentage
- residence time of the paw on the hot plate, percentage with respect to the control treated with carrageenan alone (PPAR-gamma receptor; GW9662 1 mg/kg i.p. 30 min before CAR + Adelmidrol 10 mg/kg i.p., 4 hr): 114.1 percentage
- residence time of the paw on the hot plate, percentage with respect to the control treated with carrageenan alone (PPAR-gamma receptor; GW9662 1 mg/kg i.p. 30 min before CAR + Adelmidrol 10 mg/kg i.p., 5 hr): 112.5 percentage
- protective action on carrageenan-induced edema in the absence of the PPAR-alpha receptor ([3]; PPAR-alpha knock-out mice): did not alter the protective action of Adelmidrol; also recorded: shows activity on the carrageenan-induced edema in mice genetically lacking the PPAR-alpha receptor
- edema as a percentage with respect to the edema produced by carrageenan alone ([3]; 0 min.): 102.4 percentage
- edema as a percentage with respect to the edema produced by carrageenan alone ([3]; 30 min): 81.9 percentage
- edema as a percentage with respect to the edema produced by carrageenan alone ([3]; 1 hr): 69.2 percentage
- edema as a percentage with respect to the edema produced by carrageenan alone ([3]; 2 hr): 63.9 percentage
- edema as a percentage with respect to the edema produced by carrageenan alone ([3]; 3 hr): 55.6 percentage
- edema as a percentage with respect to the edema produced by carrageenan alone ([3]; 4 hr): 51.4 percentage
- edema as a percentage with respect to the edema produced by carrageenan alone ([3]; 5 hr): 50.3 percentage
